Source: US20230363382A1, “COMBINATIONS OF TRIAZINONE HERBICIDES WITH SAFENERS” (priority 2020, published 2023)
Read-outs that look alike come from different tables or passages of the source.

Experiments:
Conditions in all cases: Metribuzin 840 g ai/ha alone, soil spray
[1] = test system: Ipomoea hederacea; experiment: % weed control in Soybean crop; format: in vivo
Procedure: (§1) Experiments were carried out to evaluate the phytotoxicity, effect on plant height and effect on number of plants standing after treatments with combinations of one or more triazinone herbicides with one or more safeners.
(§2) Application method was spray and applications were made to soil.

[2] = test system: Soybean crop; experiment: effect on plant height of Soybean crop; format: in vivo
Procedure: as §1, §2

[3] = test system: Soybean plants; experiment: effect on number of standing Soybean plants; format: in vivo
Procedure: as §1, §2

[4] = test system: Soybean crop
Procedure: as §1, §2

SMILES: CSc1nnc(C(C)(C)C)c(=O)n1N [Metribuzin, 4-amino-6-tert-butyl-4,5-dihydro-3-methylthio-1,2,4-triazin-5-one]
- % Weed Control 7 DAA ([1]; Table 1 treatment set): 60.0%
- % Weed Control 7 DAA ([1]; Table 2 treatment set): 72.5%
- % Weed Control 14 DAA ([1]; Table 1 treatment set): 92.5%
- % Weed Control 14 DAA ([1]; Table 2 treatment set): 96.3%
- % Weed Control 21 DAA ([1]; Table 1 treatment set): 98.8%
- % Weed Control 21 DAA ([1]; Table 2 treatment set): 96.8%
- % Weed Control 28 DAA ([1]; Table 1 treatment set): 95.0%
- % Weed Control 28 DAA ([1]; Table 2 treatment set): 98.8%
- % Weed Control 35 DAA ([1]; Table 1 treatment set): 96.3%
- % Weed Control 35 DAA ([1]; Table 2 treatment set): 98.8%
- Plant height 28 DAA ([2]; Table 1 treatment set): 5.80
- Plant height 28 DAA ([2]; Table 2 treatment set): 7.05
- Number of plants standing 28 DAA ([3]; Table 1 treatment set): 3.0
- Number of plants standing 28 DAA ([3]; Table 2 treatment set): 3.8
- % Phytotoxicity 7 DAA ([4]; Table 1 treatment set): 6.3%
- % Phytotoxicity 7 DAA ([4]; Table 2 treatment set): 7.5%
- % Phytotoxicity 21 DAA ([4]; Table 1 treatment set): 65.0%
- % Phytotoxicity 21 DAA ([4]; Table 2 treatment set): 62.5%
- % Phytotoxicity 35 DAA ([4]; 35 DAA, Table 1 treatment set): 81.3%
